How the values were obtained:
[1] = Solubility measurement of beta-carotene in water (0.45 micron filtration, UV-Vis spectrometry); format: physicochemical; conditions: beta-carotene admixed in edible oil, mixed with 10 ml DI water, 0.45 micron syringe filter
Protocol: Solubility Measurement: For comparison purpose, the solubility of beta-carotene was measured both in edible oil and in the micellized product of Example 1 described above. In these measurements a suitable amount of sample is mixed with 10 ml of DI water for at least 10 minutes. The solutions are filtered through 0.45 microns syringe filter. The beta-carotene contained in the sample after this filtration is measured by UV-Vis spectrometry. […] 100% of the originally admixed beta-carotene is measured to be present in the micellized filtered sample of Example 1.

[2] = Solubility measurement of Co-Q10 in aqueous solution (HPLC assay); format: physicochemical

## CC1=C(/C=C/C(C)=C/C=C/C(C)=C/C=C/C=C(C)/C=C/C=C(C)/C=C/C2=C(C)CCCC2(C)C)C(C)(C)CCC1 [beta-carotene]
[1]
  beta-carotene found in the aqueous sample: No detectable amount

## COC1=C(OC)C(=O)C(C/C=C(\C)CC/C=C(\C)CC/C=C(\C)CC/C=C(\C)CC/C=C(\C)CC/C=C(\C)CC/C=C(\C)CC/C=C(\C)CC/C=C(\C)CCC=C(C)C)=C(C)C1=O [Co-Q10 powder, ubidecarenone]
[2]
  Co-Q10 detected in aqueous solution: no Co-Q10 detected
